Experimental data as given in patent publication US9511134B2, “Inducing immune responses to influenza virus using polypeptide and nucleic acid compositions” (priority 2006, dated 2016).
Like-named read-outs stand apart in the source and are kept apart here.

What was measured:
CD4+ PBMC = format: cell-based, human; details: for Human influenza epitope-specific immune response, donor 3501: PBMC rested five days
DRB1*0301 = target: T1, DRB1*0301 (Homo sapiens, UniProt P01903+P01911, A100K/A102G/A103R/A169T/F55Y/I96L/K41T/L162R/M171V/P40S/Q125H/Q178H/Q39Y/R42S/S66N/T106N/T262R/W38E/Y61H); assay: biochemical; format: binding
T1 construct: made in house; host or cells: EBV-transformed homozygous human B cell lines, transfected fibroblasts or single-allele 721.221 transfectants
T1 sequence (P01903 26-254, other chains not shown): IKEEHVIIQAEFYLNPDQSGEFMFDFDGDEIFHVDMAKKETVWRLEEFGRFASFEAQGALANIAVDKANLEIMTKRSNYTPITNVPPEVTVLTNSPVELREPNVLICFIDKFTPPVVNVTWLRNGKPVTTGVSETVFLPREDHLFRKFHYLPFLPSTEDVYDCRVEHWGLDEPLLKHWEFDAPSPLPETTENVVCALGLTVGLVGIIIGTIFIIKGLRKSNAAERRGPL

DRB1*0401 = target: T2, DRB1*0401 (Homo sapiens, UniProt P01903+P01911, A100K/A169T/F76Y/I96L/K127E/L162R/M171V/N62H/P40V/Q125Y/R42H/S133A/S149N/S66Y/V115G/V209L/W38E); assay: biochemical; format: binding; details: read-out: IC50 nM to purified HLA DRB1*0401
T2 construct: made in house; host or cells: EBV-transformed homozygous human B cell lines, transfected fibroblasts or single-allele 721.221 transfectants

DRB1*1501 = target: T3, DRB1*1501 (Homo sapiens, UniProt P01903+P01911); assay: biochemical; format: binding; details: read-out: IC50 nM to purified HLA DRB1*1501
T3 construct: made in house; host or cells: EBV-transformed homozygous human B cell lines, transfected fibroblasts or single-allele 721.221 transfectants

DRB4*0101 = target: T4, DRB4*0101 (Homo sapiens, UniProt P01903+P13762, G164S); assay: biochemical; format: binding; details: IC50 nM to purified HLA DRB4*0101
T4 construct: made in house; host or cells: EBV-transformed homozygous human B cell lines, transfected fibroblasts or single-allele 721.221 transfectants

DRB1*0101 = target: T5, DRB1*0101 (Homo sapiens, UniProt P01903+P01911, A100R/D57E/F55L/F60I/F76Y/I96L/L162R/M171V/P40L/Q125E/R42F/V115G/Y59C); assay: biochemical; format: binding; details: IC50 nM to purified HLA DRB1*0101
T5 construct: made in house; host or cells: EBV-transformed homozygous human B cell lines, transfected fibroblasts or single-allele 721.221 transfectants

DRB1*1302 = DRB1*1302 (Homo sapiens, UniProt P01903+P01911, A100E/A169T/K41T/L162R/M171V/P40S/Q125H/Q178H/Q39Y/Q99D/R42S/S66N/T262R/V115G/W38E/Y61H); assay: biochemical; format: binding; details: read-out: IC50 nM to purified HLA DRB1*1302
Sequence of DRB1*1302 (P01903 26-254 limits assumed, other chains not shown): as the sequence (P01903 26-254, other chains not shown) above

DRB1*0404 = DRB1*0404 (Homo sapiens, UniProt P01903+P01911, A100R/A169T/F76Y/I96L/K127E/L162R/M171V/N62H/P40V/Q125Y/R42H/S133A/S149N/S66Y/V209L/W38E); assay: biochemical; format: binding; details: IC50 nM to purified HLA DRB1*0404
[1] = IFNγ ELISPOT, five day expansion with peptide pool, CD8-depleted

With `CSCC[C@H](NC(=O)[C@H](C)NC(=O)[C@H](CCC(N)=O)NC(=O)[C@@H](NC(=O)[C@H](CCSC)NC(=O)[C@H](CCC(N)=O)NC(=O)[C@H](CCCNC(=N)N)NC(=O)[C@H](C)NC(=O)[C@H](CCC(N)=O)NC(=O)[C@H](CO)NC(=O)[C@H](C)NC(=O)[C@@H](NC(=O)[C@H](CCC(=O)O)NC(=O)[C@H](CCSC)NC(=O)[C@H](C)N)C(C)C)C(C)C)C(=O)O` [Flu.M1.205] the “Human influenza epitope-specific immune response, donor 6018” value (CD4+ PBMC; [1]) was “Positive (Donors were considered positive for a peptide if the number of spots was over 3 times background as determined by responses to irrelevant peptides (non influenza))” and the “Human influenza epitope-specific immune response, donor AC02” value (CD4+ PBMC; [1]) was “Positive (Donors were considered positive for a peptide if the number of spots was over 3 times background as determined by responses to irrelevant peptides (non influenza))”.
For `CC[C@H](C)[C@H](NC(=O)CNC(=O)[C@@H](N)CCCCN)C(=O)N[C@@H](CC(C)C)C(=O)NCC(=O)N[C@@H](Cc1ccccc1)C(=O)N[C@H](C(=O)N[C@@H](Cc1ccccc1)C(=O)N[C@H](C(=O)N[C@@H](CC(C)C)C(=O)N[C@H](C(=O)N[C@H](C(=O)N1CCC[C@H]1C(=O)N[C@@H](CO)C(=O)N[C@@H](CCC(=O)O)C(=O)O)C(C)C)[C@@H](C)O)[C@@H](C)O)C(C)C` [Flu.M1.60], the “Human influenza epitope-specific immune response, donor 753” value (CD4+ PBMC) was “Positive (key: Positive: Donors were considered positive for a peptide if the number of spots was over 3 times background as determined by responses to irrelevant peptides (non influenza))”, the “Human influenza epitope-specific immune response, donor 6018” value (CD4+ PBMC) was “Positive (key: Positive: Donors were considered positive for a peptide if the number of spots was over 3 times background as determined by responses to irrelevant peptides (non influenza))” and the “Human influenza epitope-specific immune response, donor AC02” value (CD4+ PBMC) was “Positive (key: Positive: Donors were considered positive for a peptide if the number of spots was over 3 times background as determined by responses to irrelevant peptides (non influenza))”. For the same compound, the “Human influenza epitope-specific immune response, donor AC08” value (CD4+ PBMC) was “Positive (key: Positive: Donors were considered positive for a peptide if the number of spots was over 3 times background as determined by responses to irrelevant peptides (non influenza))”.
In the case of `CC[C@H](C)[C@H](NC(=O)[C@H](CC(C)C)NC(=O)[C@H](CCC(=O)O)NC(=O)[C@H](CCSC)NC(=O)[C@@H](NC(=O)[C@H](CCSC)NC(=O)[C@@H](NC(=O)CNC(=O)[C@@H](N)C(C)C)[C@@H](C)O)C(C)C)C(=O)N[C@@H](CCCNC(=N)N)C(=O)N[C@@H](CCSC)C(=O)N[C@H](C(=O)N[C@@H](CCCCN)C(=O)N[C@@H](CCCNC(=N)N)C(=O)NCC(=O)O)[C@@H](C)CC` [Flu.NP.189], the “Human influenza epitope-specific immune response, donor 753” value (CD4+ PBMC; [1]) is reported as “Positive (Donors were considered positive for a peptide if the number of spots was over 3 times background as determined by responses to irrelevant peptides (non influenza))”, the “Human influenza epitope-specific immune response, donor 6018” value (CD4+ PBMC; [1]) is reported as “Positive (Donors were considered positive for a peptide if the number of spots was over 3 times background as determined by responses to irrelevant peptides (non influenza))” and the “Human influenza epitope-specific immune response, donor AC08” value (CD4+ PBMC; [1]) is reported as “Positive (Donors were considered positive for a peptide if the number of spots was over 3 times background as determined by responses to irrelevant peptides (non influenza))”.
In the case of `CSCC[C@H](NC(=O)[C@H](CO)NC(=O)[C@H](Cc1ccccc1)NC(=O)[C@H](CC(N)=O)NC(=O)[C@H](C)NC(=O)[C@@H](NC(=O)[C@H](Cc1ccccc1)NC(=O)CNC(=O)[C@@H](N)Cc1ccc(O)cc1)C(C)C)C(=O)N[C@@H](CCC(=O)O)C(=O)N[C@@H](CC(C)C)C(=O)N1CCC[C@H]1C(=O)N[C@@H](CO)C(=O)N[C@@H](Cc1ccccc1)C(=O)NCC(=O)O` [Flu.PB1.502], the “Human influenza epitope-specific immune response, donor 3501” value (CD4+ PBMC; IFNγ ELISPOT, CD8-depleted) is reported as “Positive (Donors were considered positive for a peptide if the number of spots was over 3 times background as determined by responses to irrelevant peptides (non influenza))”.
With `CC[C@H](C)[C@H](NC(=O)[C@H](CC(C)C)NC(=O)[C@@H]1CCCN1C(=O)[C@@H](N)CC(N)=O)C(=O)N[C@@H](CCCNC(=N)N)C(=O)N[C@@H](Cc1c[nH]cn1)C(=O)N[C@@H](CCC(=O)O)C(=O)N[C@@H](CC(N)=O)C(=O)N[C@@H](CCCNC(=N)N)C(=O)N[C@@H](CCSC)C(=O)N[C@H](C(=O)N[C@@H](CC(C)C)C(=O)N[C@@H](C)C(=O)N[C@@H](CO)C(=O)N[C@H](C(=O)O)[C@@H](C)O)C(C)C` [Flu.M1.173] the “Human influenza epitope-specific immune response, donor AC02” value (CD4+ PBMC; [1]) was “Positive (Donors were considered positive for a peptide if the number of spots was over 3 times background as determined by responses to irrelevant peptides (non influenza))”.
`CC[C@H](C)[C@H](NC(=O)[C@H](CC(C)C)NC(=O)[C@H](C)NC(=O)[C@H](CO)NC(=O)[C@H](CCCNC(=N)N)NC(=O)[C@H](C)NC(=O)[C@H](CC(C)C)NC(=O)[C@H](Cc1ccccc1)NC(=O)[C@@H](NC(=O)[C@H](CC(C)C)NC(=O)[C@@H](N)CC(=O)O)[C@@H](C)CC)C(=O)N[C@@H](CC(C)C)C(=O)N[C@@H](CCCNC(=N)N)C(=O)NCC(=O)N[C@@H](CO)C(=O)O` [Flu.NP.258] was tested, and the “Human influenza epitope-specific immune response, donor 6018” value (CD4+ PBMC; [1]) was “Positive (Donors were considered positive for a peptide if the number of spots was over 3 times background as determined by responses to irrelevant peptides (non influenza))”.
In the case of `CSCC[C@H](NC(=O)CNC(=O)[C@H](CCSC)NC(=O)[C@@H](N)CCSC)C(=O)N[C@@H](Cc1ccccc1)C(=O)N[C@@H](CC(N)=O)C(=O)N[C@@H](CCSC)C(=O)N[C@@H](CC(C)C)C(=O)N[C@@H](CO)C(=O)N[C@H](C(=O)N[C@H](C(=O)N[C@@H](CC(C)C)C(=O)NCC(=O)N[C@H](C(=O)N[C@@H](CO)C(=O)O)C(C)C)C(C)C)[C@@H](C)O` [Flu.PB1.411], the “Human influenza epitope-specific immune response, donor 3501” value (CD4+ PBMC; IFNγ ELISPOT, CD8-depleted) is reported as “Positive (Donors were considered positive for a peptide if the number of spots was over 3 times background as determined by responses to irrelevant peptides (non influenza))”, the “Human influenza epitope-specific immune response, donor 716” value (CD4+ PBMC; [1]) is reported as “Positive (Donors were considered positive for a peptide if the number of spots was over 3 times background as determined by responses to irrelevant peptides (non influenza))” and the “Human influenza epitope-specific immune response, donor 753” value (CD4+ PBMC; [1]) is reported as “Positive (Donors were considered positive for a peptide if the number of spots was over 3 times background as determined by responses to irrelevant peptides (non influenza))”. For the same compound, the “Human influenza epitope-specific immune response, donor 6018” value (CD4+ PBMC; [1]) was “Positive (Donors were considered positive for a peptide if the number of spots was over 3 times background as determined by responses to irrelevant peptides (non influenza))”.
In the case of `CC[C@H](C)[C@H](NC(=O)CNC(=O)[C@H](CCC(=O)O)NC(=O)[C@H](Cc1c[nH]cn1)NC(=O)[C@H](CC(N)=O)NC(=O)[C@@H]1CCCN1C(=O)[C@H](C)NC(=O)[C@H](CC(N)=O)NC(=O)[C@@H](NC(=O)[C@@H](NC(=O)[C@H](CC(C)C)NC(=O)[C@H](C)NC(=O)[C@H](Cc1ccccc1)NC(=O)[C@@H](N)CC(=O)O)[C@@H](C)CC)C(C)C)C(=O)N[C@@H](CCC(N)=O)C(=O)O` [Flu.PB1.449], the “Human influenza epitope-specific immune response, donor 3501” value (CD4+ PBMC; IFNγ ELISPOT, CD8-depleted) is reported as “Positive (Donors were considered positive for a peptide if the number of spots was over 3 times background as determined by responses to irrelevant peptides (non influenza))”.
`CC(C)C[C@H](NC(=O)CNC(=O)[C@@H](NC(=O)[C@H](C)NC(=O)[C@H](CC(C)C)NC(=O)[C@@H](NC(=O)[C@H](CC(C)C)NC(=O)[C@H](CCCNC(=N)N)NC(=O)[C@H](CC(N)=O)NC(=O)[C@H](CO)NC(=O)[C@H](CCCCN)NC(=O)[C@@H](NC(=O)[C@H](Cc1ccc(O)cc1)NC(=O)[C@H](CCCCN)NC(=O)[C@@H]1CCCN1C(=O)[C@@H](N)CS)C(C)C)C(C)C)[C@@H](C)O)C(=O)O` [Flu.HA.318] gave an IC50 (DRB1*0301) of 2920 nM, an IC50 (DRB1*0401) of 868 nM and an IC50 (DRB1*1501) of 230 nM. For the same compound, the IC50 (DRB4*0101) was 287 nM, the IC50 (DRB1*0101) was 2760 nM and the IC50 (DRB1*1302) was 48 nM.
In the case of `CC[C@H](C)[C@H](NC(=O)CNC(=O)[C@H](CO)NC(=O)[C@@H](NC(=O)CNC(=O)[C@H](Cc1ccccc1)NC(=O)[C@H](CO)NC(=O)[C@@H]1CCCN1C(=O)[C@@H](N)CC(C)C)C(C)C)C(=O)N[C@@H](CC(N)=O)C(=O)N[C@@H](CCC(=O)O)C(=O)N[C@@H](CO)C(=O)N[C@@H](C)C(=O)N[C@@H](CC(=O)O)C(=O)N[C@@H](CCSC)C(=O)O` [Flu.PB1.512], the IC50 (DRB1*0404) is reported as 39 nM, the IC50 (DRB1*0401) is reported as 44 nM and the IC50 (DRB4*0101) is reported as 48 nM.
